Test results taken from US20230146455A1, “TREATMENT OF INFLAMMATORY DISEASES WITH PEPTIDES AND PHARMACEUTICAL COMPOSITIONS” (Yuyu Pharma, Inc., priority 2020, published 2023).
“And” between values parts separate entries of the source, which are not always exact repeats. Identical values can stand only once. Where a SMILES comes first, the peptide text is derived from it. [ ]: non-standard residue; d: D form. Hyp = O=C(O)[C@@H]1C[C@@H](O)CN1

Tested on: human PBMCs
Experiment: PBMC cell counts (total, live, viability; trypan blue, Countess) with and without LPS and test articles (Example 9)
Format: cell-based
Experimental: Treatment Human PBMCs were pretreated with YY-101, YDE-011 and YDE-043 or reference compound; Xiidra® at various concentration (ranging from 1 nM to 100 uM) for 2 h before stimulation. An equal volume of 0.5% DMSO was used as a vehicle control. Then, the cells were treated with LPS at 5 ug/ml. The supernatants from treated cells were harvested at 24 h and placed in a 96 well for Luminex cytokine & chemokine profiling using a Luminex 200 multiplex assay (Luminex; R&D system, USA).
The main study arm with triplicate wells per group in a 24-well plate: • 1. Blank • 2. PBMC: 0.5% DMSO • 3. PBMC+LPS (5 ug/ml) • 4. PBMC+YY-101 100 uM • 5. PBMC+YY-101 10 uM • 6. PBMC+YY-101 1 uM • 7. PBMC+YY-101 0.1 uM • 8. PBMC+YY-101 0.01 uM • 9. PBMC+LPS (5 ug/ml)+Xiidra®100 uM • 10. PBMC+LPS (5 ug/ml)+Xiidra® 10 uM • 11. PBMC+LPS (5 ug/ml)+Xiidra® 1 uM • 12. PBMC+LPS (5 ug/ml)+Xiidra®0.1 uM • 13. PBMC+LPS (5 ug/ml)+Xiidra®0.01 uM • 14. PBMC+LPS (5 ug/ml)+Xiidra®0.001 uM • 15. PBMC+LPS (5 ug/ml)+YY-101 100 uM • 16. PBMC+LPS (5 ug/ml)+YY-101 10 uM • 17. PBMC+LPS (5 ug/ml)+YY-101 1 uM • 18. PBMC+LPS (5 ug/ml)+YY-101 0.1 uM • 19. PBMC+LPS (5 ug/ml)+YY-101 0.01 uM • 20. PBMC+LPS (5 ug/ml)+YY-101 0.001 uM • 21. PBMC+LPS (5 ug/ml)+YDE-011 100 uM • 22. PBMC+LPS (5 ug/ml)+YDE-011 10 uM • 23. PBMC+LPS (5 ug/ml)+YDE-011 1 uM • 24. PBMC+LPS (5 ug/ml)+YDE-011 0.1 uM • 25. PBMC+LPS (5 ug/ml)+YDE-011 0.01 uM • 26. PBMC+LPS (5 ug/ml)+YDE-011 0.001 uM • 27. PBMC+LPS (5 ug/ml)+YDE-043 100 uM • 28. PBMC+LPS (5 ug/ml)+YDE-043 10 uM • 29. PBMC+LPS (5 ug/ml)+YDE-043 1 uM • 30. PBMC+LPS (5 ug/ml)+YDE-043 0.1 uM • 31. PBMC+LPS (5 ug/ml)+YDE-043 0.01 uM • 32. PBMC+LPS (5 ug/ml)+YDE-043 0.001 uM
The number of PBMCs was measured after 24 hr of treatment. The culture both and trypan blue were diluted 1:1 and 10 ul was added to Countess cell counting chamber (Thermo fisher, USA). The number of PBMCs was measured using a Countess automated cell counter (Thermo fisher, USA).

[1] = PBMC + LPS(5 ug/ml) + compound 0.001 uM, 24 hr
[2] = PBMC + LPS(5 ug/ml) + compound 0.01 uM, 24 hr
[3] = PBMC + LPS(5 ug/ml) + compound 0.1 uM, 24 hr
[4] = PBMC + LPS(5 ug/ml) + compound 1 uM, 24 hr
[5] = PBMC + LPS(5 ug/ml) + compound 10 uM, 24 hr
[6] = PBMC + LPS(5 ug/ml) + compound 100 uM, 24 hr
[7] = PBMC + LPS(5 ug/ml) + test article 0.001 uM, Mean
[8] = PBMC + LPS(5 ug/ml) + test article 0.001 uM, single replicates
[9] = PBMC + LPS(5 ug/ml) + test article 0.01 uM, Mean
[10] = PBMC + LPS(5 ug/ml) + test article 0.01 uM, single replicates
[11] = PBMC + LPS(5 ug/ml) + test article 0.1 uM, Mean
[12] = PBMC + LPS(5 ug/ml) + test article 0.1 uM, single replicates
[13] = PBMC + LPS(5 ug/ml) + test article 1 uM, Mean
[14] = PBMC + LPS(5 ug/ml) + test article 1 uM, single replicates
[15] = PBMC + LPS(5 ug/ml) + test article 10 uM, Mean
[16] = PBMC + LPS(5 ug/ml) + test article 10 uM, single replicates

CC(C)C[C@H](NC(=O)[C@H](CCC(N)=O)NC(=O)CNC(=O)[C@@H]1C[C@@H](O)CN1)C(=O)NCC(=O)O [YDE-043] (H-[Hyp]GQLG-OH; N-terminus and C-terminus assumed)
Live cell [1]: 5.0 ± 0.5 10^5/ml
Total cell [1]: 6.3 ± 0.7 10^5/ml
Live cell [2]: 5.4 ± 0.6 10^5/ml
Total cell [2]: 6.9 ± 0.4 10^5/ml
Live cell [3]: 5.4 ± 0.2 10^5/ml
Total cell [3]: 6.6 ± 0.1 10^5/ml
Live cell [4]: 5.3 ± 0.3 10^5/ml
Total cell [4]: 6.8 ± 0.6 10^5/ml
Live cell [5]: 5.4 ± 0.1 10^5/ml
Total cell [5]: 6.4 ± 0.1 10^5/ml
Live cell [6]: 6.3 ± 0.1 10^5/ml
Total cell [6]: 7.6 ± 0.6 10^5/ml
Live cell [7]: 5.0 10^5/ml
Live cell (10^5/ml) [7]: 5.0 10^5/ml
Live cell, Mean [7]: 5.0 10^5/ml
Live cell (PBMC + LPS(5 ug/ml) + test article 0.001 uM, individual replicates): 4.4 10^5/ml and 6.0 10^5/ml and 4.6 10^5/ml
Live cell (PBMC + LPS(5 ug/ml) + test article 0.001 uM, individual replicates (1st, 2nd, 3rd)): 4.4 10^5/ml and 6.0 10^5/ml and 4.6 10^5/ml
Live cell [8]: 4.4 10^5/ml and 6.0 10^5/ml and 4.6 10^5/ml
Live cell (10^5/ml) [8]: 4.4 10^5/ml and 6.0 10^5/ml and 4.6 10^5/ml
Live cell (PBMC + LPS(5 ug/ml) + test article 0.001 uM, single replicates (1st, 2nd, 3rd)): 4.4 10^5/ml and 6.0 10^5/ml and 4.6 10^5/ml
Live cell [9]: 5.4 10^5/ml
Live cell (10^5/ml) [9]: 5.4 10^5/ml
Live cell, Mean [9]: 5.4 10^5/ml
Live cell (PBMC + LPS(5 ug/ml) + test article 0.01 uM, individual replicates): 4.5 10^5/ml and 6.6 10^5/ml and 5.0 10^5/ml
Live cell (PBMC + LPS(5 ug/ml) + test article 0.01 uM, individual replicates (1st, 2nd, 3rd)): 4.5 10^5/ml and 6.6 10^5/ml and 5.0 10^5/ml
Live cell [10]: 4.5 10^5/ml and 6.6 10^5/ml and 5.0 10^5/ml
Live cell (10^5/ml) [10]: 4.5 10^5/ml and 6.6 10^5/ml and 5.0 10^5/ml
Live cell (PBMC + LPS(5 ug/ml) + test article 0.01 uM, single replicates (1st, 2nd, 3rd)): 4.5 10^5/ml and 6.6 10^5/ml and 5.0 10^5/ml
Live cell [11]: 5.4 10^5/ml
Live cell (10^5/ml) [11]: 5.4 10^5/ml
Live cell, Mean [11]: 5.4 10^5/ml
Live cell (PBMC + LPS(5 ug/ml) + test article 0.1 uM, individual replicates): 5.0 10^5/ml and 5.6 10^5/ml (2×)
Live cell (PBMC + LPS(5 ug/ml) + test article 0.1 uM, individual replicates (1st, 2nd, 3rd)): 5.0 10^5/ml and 5.6 10^5/ml (2×)
Live cell [12]: 5.0 10^5/ml and 5.6 10^5/ml (2×)
Live cell (10^5/ml) [12]: 5.0 10^5/ml and 5.6 10^5/ml (2×)
Live cell (PBMC + LPS(5 ug/ml) + test article 0.1 uM, single replicates (1st, 2nd, 3rd)): 5.0 10^5/ml and 5.6 10^5/ml (2×)
Live cell [13]: 5.3 10^5/ml
Live cell (10^5/ml) [13]: 5.3 10^5/ml
Live cell, Mean [13]: 5.3 10^5/ml
Live cell (PBMC + LPS(5 ug/ml) + test article 1 uM, individual replicates): 5.8 10^5/ml and 4.8 10^5/ml and 5.3 10^5/ml
Live cell (PBMC + LPS(5 ug/ml) + test article 1 uM, individual replicates (1st, 2nd, 3rd)): 5.8 10^5/ml and 4.8 10^5/ml and 5.3 10^5/ml
Live cell [14]: 5.8 10^5/ml and 4.8 10^5/ml and 5.3 10^5/ml
Live cell (10^5/ml) [14]: 5.8 10^5/ml and 4.8 10^5/ml and 5.3 10^5/ml
Live cell (PBMC + LPS(5 ug/ml) + test article 1 uM, single replicates (1st, 2nd, 3rd)): 5.8 10^5/ml and 4.8 10^5/ml and 5.3 10^5/ml
Live cell [15]: 5.4 10^5/ml
Live cell (10^5/ml) [15]: 5.4 10^5/ml
Live cell, Mean [15]: 5.4 10^5/ml
Live cell (PBMC + LPS(5 ug/ml) + test article 10 uM, individual replicates): 5.2 10^5/ml and 5.4 10^5/ml and 5.6 10^5/ml
Live cell (PBMC + LPS(5 ug/ml) + test article 10 uM, individual replicates (1st, 2nd, 3rd)): 5.2 10^5/ml and 5.4 10^5/ml and 5.6 10^5/ml
Live cell [16]: 5.2 10^5/ml and 5.4 10^5/ml and 5.6 10^5/ml
Live cell (10^5/ml) [16]: 5.2 10^5/ml and 5.4 10^5/ml and 5.6 10^5/ml
